In patent US20230075007A1 (IMPACT NATURALS, INC., priority 2021, published 2023):

What was measured:
CB2 = CB2 (Homo sapiens, UniProt P34972); conditions: WHO assessment; cited from earlier work
[1] = cited from earlier work
[2] = Dispersion in simulated gastric and intestinal fluids; format: physicochemical
Method: Dispersion of the formulations in simulated gastric and intestinal fluids is evaluated over a 12 hour period.

CB2, sequence (P34972 whole entry, species assumed): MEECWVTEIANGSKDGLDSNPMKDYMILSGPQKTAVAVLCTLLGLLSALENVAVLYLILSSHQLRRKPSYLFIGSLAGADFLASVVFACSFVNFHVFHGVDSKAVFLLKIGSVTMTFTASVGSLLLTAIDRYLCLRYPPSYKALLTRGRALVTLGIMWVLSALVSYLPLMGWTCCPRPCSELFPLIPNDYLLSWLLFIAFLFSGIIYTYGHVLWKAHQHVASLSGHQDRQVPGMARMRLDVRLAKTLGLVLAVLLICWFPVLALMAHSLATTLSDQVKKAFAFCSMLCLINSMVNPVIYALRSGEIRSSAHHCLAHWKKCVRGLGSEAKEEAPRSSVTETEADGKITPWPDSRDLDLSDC

C=C(C)[C@@H]1CCC(C)=C[C@H]1c1c(O)cc(CCCCC)cc1O [Cannabidiol]
affinity to CB2 (CB2): low affinity
aqueous solubility [1]: approximately 0.013 milligrams per milliliter
dispersion ([2]; FaSSGF, pH 1.2, 12 hour period): no dispersion
dispersion pattern in the biorelevant media ([2]; FaSSIF, FeSSIF and FaSSGF overall): poor dispersion
dispersion ([2]; FaSSIF, pH 6.5, 12 hour period): about 20%
dispersion ([2]; FeSSIF, pH 5.5, 12 hour period): about 20%
